Reference: PMC12814364 (Journal of the American Chemical Society, 2025)
Where two headings read alike, the source gives them in different places.

Experiments:
HBHA110–199 [1] = molecular target: T1, HBHA110–199 (Mycobacterium tuberculosis, UniProt P9WIP9); assay type: binding
HBHA110–199 [2] = molecular target: T1, HBHA110–199; assay: ITC binding of HS hexadecasaccharides with HBHA110–199
HBHA110–199 [3] = molecular target: T1, HBHA110–199; assay: Circular dichroism of HBHA110–199 with added sugar; conditions: data not shown
full-length HBHA = molecular target: T2, full-length HBHA (Mycobacterium tuberculosis, UniProt P9WIP9); assay: Far-UV circular dichroism of full-length HBHA with added sugar
T2 sequence (P9WIP9 1-199): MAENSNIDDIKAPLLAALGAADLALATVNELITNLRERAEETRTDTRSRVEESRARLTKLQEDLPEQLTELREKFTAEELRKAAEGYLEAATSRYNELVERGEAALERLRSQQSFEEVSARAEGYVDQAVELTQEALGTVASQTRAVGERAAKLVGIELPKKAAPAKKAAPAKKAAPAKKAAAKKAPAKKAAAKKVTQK

O=C(O)[C@@H]1O[C@@H](O[C@H]2[C@H](O)[C@@H](NS(=O)(=O)O)[C@@H](O[C@H]3[C@H](O)[C@@H](OS(=O)(=O)O)[C@H]4OC[C@@H]3O4)O[C@@H]2COS(=O)(=O)O)[C@H](OS(=O)(=O)O)[C@@H](O)[C@@H]1O[C@H]1O[C@H](COS(=O)(=O)O)[C@@H](O[C@@H]2O[C@@H](C(=O)O)[C@@H](O[C@H]3O[C@H](COS(=O)(=O)O)[C@@H](O[C@@H]4O[C@@H](C(=O)O)[C@@H](O[C@H]5O[C@H](COS(=O)(=O)O)[C@@H](O[C@@H]6O[C@@H](C(=O)O)[C@@H](O[C@H]7O[C@H](COS(=O)(=O)O)[C@@H](O[C@@H]8O[C@@H](C(=O)O)[C@@H](O[C@H]9O[C@H](COS(=O)(=O)O)[C@@H](O[C@@H]%10O[C@@H](C(=O)O)[C@@H](O[C@H]%11O[C@H](COS(=O)(=O)O)[C@@H](O[C@@H]%12O[C@@H](C(=O)O)[C@@H](O[C@H]%13O[C@H](COS(=O)(=O)O)[C@@H](O)[C@H](O)[C@H]%13NS(=O)(=O)O)[C@H](O)[C@H]%12OS(=O)(=O)O)[C@H](O)[C@H]%11NS(=O)(=O)O)[C@H](O)[C@H]%10OS(=O)(=O)O)[C@H](O)[C@H]9NS(=O)(=O)O)[C@H](O)[C@H]8OS(=O)(=O)O)[C@H](O)[C@H]7NS(=O)(=O)O)[C@H](O)[C@H]6OS(=O)(=O)O)[C@H](O)[C@H]5NS(=O)(=O)O)[C@H](O)[C@H]4OS(=O)(=O)O)[C@H](O)[C@H]3NS(=O)(=O)O)[C@H](O)[C@H]2OS(=O)(=O)O)[C@H](O)[C@H]1NS(=O)(=O)O [compound 24]
Kd (HBHA110–199 [1]; Average of Repeat I P(KKAA), residue 160-164, read-out: Dissociation constant from NMR cross-peak movement, average): 8700 nM | Kd (HBHA110–199 [1]; Average of Repeat II P(AKKAA), residue 165-170, read-out: Dissociation constant from NMR cross-peak movement, average): 3200 nM | Kd (HBHA110–199 [1]; Average of Repeat III P(AKKAA), residue 171-176, read-out: Dissociation constant from NMR cross-peak movement, average): 2900 nM | Kd (HBHA110–199 [1]; Average of Repeat IV P([…]), residue 177-186, read-out: Dissociation constant from NMR cross-peak movement, average): 1400 nM | Kd (HBHA110–199 [1]; Average of Repeat V P([…]), residue 187-196, read-out: Dissociation constant from NMR cross-peak movement, average): 1600 nM | Kd (HBHA110–199 [1]; from NMR cross-peak movement, read-out: average KD in the most perturbed region (residues 178–199)): 1500 nM | average Δδresidue (weighted chemical shift deviation) of HBHA110–199 (HBHA110–199 [1]; protein-to-sugar molar ratio 1:2, all residues): 0.035 ppm | Kd (HBHA110–199 [1]; residue A163, Repeat I, read-out: Dissociation constant from NMR cross-peak movement): 9500 nM | Kd (HBHA110–199 [1]; residue A164, Repeat I, read-out: Dissociation constant from NMR cross-peak movement): 5400 nM | Kd (HBHA110–199 [1]; residue A166, Repeat II, read-out: Dissociation constant from NMR cross-peak movement): 3200 nM | Kd (HBHA110–199 [1]; residue A169, Repeat II, read-out: Dissociation constant from NMR cross-peak movement): 5500 nM | Kd (HBHA110–199 [1]; residue A170, Repeat II, read-out: Dissociation constant from NMR cross-peak movement): 2500 nM | Kd (HBHA110–199 [1]; residue A172, Repeat III, read-out: Dissociation constant from NMR cross-peak movement): 2200 nM | Kd (HBHA110–199 [1]; residue A175, Repeat III, read-out: Dissociation constant from NMR cross-peak movement): 2300 nM | Kd (HBHA110–199 [1]; residue A176, Repeat III, read-out: Dissociation constant from NMR cross-peak movement): 1400 nM | Kd (HBHA110–199 [1]; residue A178, Repeat IV, read-out: Dissociation constant from NMR cross-peak movement): 800 nM | Kd (HBHA110–199 [1]; residue A181, Repeat IV, read-out: Dissociation constant from NMR cross-peak movement): 1400 nM | Kd (HBHA110–199 [1]; residue A182, Repeat IV, read-out: Dissociation constant from NMR cross-peak movement): 1000 nM | Kd (HBHA110–199 [1]; residue A183, Repeat IV, read-out: Dissociation constant from NMR cross-peak movement): 700 nM | Kd (HBHA110–199 [1]; residue A186, Repeat IV, read-out: Dissociation constant from NMR cross-peak movement): 800 nM | Kd (HBHA110–199 [1]; residue A188, Repeat V, read-out: Dissociation constant from NMR cross-peak movement): 800 nM | Kd (HBHA110–199 [1]; residue A191, Repeat V, read-out: Dissociation constant from NMR cross-peak movement): 1500 nM | Kd (HBHA110–199 [1]; residue A192, Repeat V, read-out: Dissociation constant from NMR cross-peak movement): 2100 nM | Kd (HBHA110–199 [1]; residue A193, Repeat V, read-out: Dissociation constant from NMR cross-peak movement): 1000 nM | Kd (HBHA110–199 [1]; residue K161, Repeat I, read-out: Dissociation constant from NMR cross-peak movement): 12900 nM | Kd (HBHA110–199 [1]; residue K162, Repeat I, read-out: Dissociation constant from NMR cross-peak movement): 6800 nM | Kd (HBHA110–199 [1]; residue K167, Repeat II, read-out: Dissociation constant from NMR cross-peak movement): 1700 nM | Kd (HBHA110–199 [1]; residue K168, Repeat II, read-out: Dissociation constant from NMR cross-peak movement): 3200 nM | Kd (HBHA110–199 [1]; residue K173, Repeat III, read-out: Dissociation constant from NMR cross-peak movement): 1700 nM | Kd (HBHA110–199 [1]; residue K174, Repeat III, read-out: Dissociation constant from NMR cross-peak movement): 6700 nM | Kd (HBHA110–199 [1]; residue K179, Repeat IV, read-out: Dissociation constant from NMR cross-peak movement): 1300 nM | Kd (HBHA110–199 [1]; residue K190, Repeat V, read-out: Dissociation constant from NMR cross-peak movement): 1200 nM | Kd (HBHA110–199 [1]; residue K194, Repeat V, read-out: Dissociation constant from NMR cross-peak movement): 1100 nM | Kd (HBHA110–199 [1]; residue K195, Repeat V, read-out: Dissociation constant from NMR cross-peak movement): 2900 nM | Kd (HBHA110–199 [1]; residue V196, Repeat V, read-out: Dissociation constant from NMR cross-peak movement): 2300 nM | n (sugar-to-protein binding ratio) (HBHA110–199 [2]; 25 °C, Tris buffer pH 7.6): 0.27 ± 0.01 | ΔG (HBHA110–199 [2]; 25 °C, Tris buffer pH 7.6): –7.82 ± 0.02 kcal/mol | ΔH (HBHA110–199 [2]; 25 °C, Tris buffer pH 7.6): 16.00 ± 0.00 kcal/mol | –TΔS (HBHA110–199 [2]; 25 °C, Tris buffer pH 7.6): –23.85 ± 0.08 kcal/mol | Kd (HBHA110–199 [2]; Tris buffer pH 7.6, 25 °C, two trials, average ± standard deviation, read-out: dissociation constant, KD): 1870 ± 60 nM | changes in CD spectra of HBHA110–199 (HBHA110–199 [3]): no noteworthy changes | random coil of full-length HBHA (full-length HBHA; HBHA:compound 1:0.5): 52.4% | β-sheet of full-length HBHA (full-length HBHA; HBHA:compound 1:0.5): 24.0% | α-helix of full-length HBHA (full-length HBHA; HBHA:compound 1:0.5, far-UV CD 195–260 nm): 23.6% | random coil of full-length HBHA (full-length HBHA; HBHA:compound 1:1): 51.9% | α-helix of full-length HBHA (full-length HBHA; HBHA:compound 1:1): 24.9% | β-sheet of full-length HBHA (full-length HBHA; HBHA:compound 1:1): 23.2% | random coil of full-length HBHA (full-length HBHA; HBHA:compound 1:1.5): 52.2% | α-helix of full-length HBHA (full-length HBHA; HBHA:compound 1:1.5): 24.4% | β-sheet of full-length HBHA (full-length HBHA; HBHA:compound 1:1.5): 23.4% | increase in α-helical content of bound HBHA (full-length HBHA; estimated by Dichroweb, roughly 16 residues): approximately 8%
